Calls of active or inactive are those of the source. The rule behind the calls is not given here.
System: CCRIS mutagenicity, Ames/micronucleus/aberration tests
Test: CCRIS mutagenicity studies
[1] = Test System: AMES SALMONELLA TYPHIMURIUM, Strain/Indicator: TA98, Metabolic Activation: NONE, Method: STANDARD PLATE
[2] = Test System: AMES SALMONELLA TYPHIMURIUM, Strain/Indicator: TA98, Metabolic Activation: RAT, LIVER, S-9, AROCLOR 1254, Method: STANDARD PLATE
[3] = Test System: AMES SALMONELLA TYPHIMURIUM, Strain/Indicator: TA100, Metabolic Activation: NONE, Method: STANDARD PLATE

Compound: COC(=O)[C@H]1[C@H]2C[C@@H]3c4[nH]c5cc(OC)ccc5c4CCN3C[C@H]2C[C@@H](OC(=O)c2cc(OC)c(OC)c(OC)c2)[C@@H]1OC
- mutagenic call (End Point: IN VITRO CHROMOSOMAL ABERRATIONS, Test System: CHO CELLS, Metabolic Activation: NONE): inactive; negative
- mutagenic call (Test System: AMES SALMONELLA TYPHIMURIUM, Strain/Indicator: TA97, Metabolic Activation: HAMSTER, LIVER, S-9, AROCLOR 1254 (10 OR 30%), Method: PREINCUBATION): inactive; negative
- mutagenic call (Test System: AMES SALMONELLA TYPHIMURIUM, Strain/Indicator: TA97, Metabolic Activation: NONE, Method: PREINCUBATION): inactive; negative
- mutagenic call (Test System: AMES SALMONELLA TYPHIMURIUM, Strain/Indicator: TA97, Metabolic Activation: RAT, LIVER, S-9, AROCLOR 1254 (10 OR 30%), Method: PREINCUBATION): inactive; negative
- mutagenic call (Test System: AMES SALMONELLA TYPHIMURIUM, Strain/Indicator: TA98, Metabolic Activation: HAMSTER, LIVER, S-9, AROCLOR 1254 (10 OR 30%), Method: PREINCUBATION): inactive; negative
- mutagenic call (Test System: AMES SALMONELLA TYPHIMURIUM, Strain/Indicator: TA98, Metabolic Activation: NONE, Method: PREINCUBATION): inactive; negative
- mutagenic call [1]: inactive; negative
- mutagenic call (Test System: AMES SALMONELLA TYPHIMURIUM, Strain/Indicator: TA98, Metabolic Activation: RAT, LIVER, S-9, AROCLOR 1254 (10 OR 30%), Method: PREINCUBATION): inactive; negative
- mutagenic call [2]: inactive; negative
- mutagenic call (Test System: AMES SALMONELLA TYPHIMURIUM, Strain/Indicator: TA100, Metabolic Activation: HAMSTER, LIVER, S-9, AROCLOR 1254 (10 OR 30%), Method: PREINCUBATION): inactive; negative
- mutagenic call (Test System: AMES SALMONELLA TYPHIMURIUM, Strain/Indicator: TA100, Metabolic Activation: NONE, Method: PREINCUBATION): inactive; negative
- mutagenic call [3]: inactive; negative
- mutagenic call (Test System: AMES SALMONELLA TYPHIMURIUM, Strain/Indicator: TA100, Metabolic Activation: RAT, LIVER, S-9, AROCLOR 1254 (10%), Method: PREINCUBATION): inactive; negative
- mutagenic call (Test System: AMES SALMONELLA TYPHIMURIUM, Strain/Indicator: TA100, Metabolic Activation: RAT, LIVER, S-9, AROCLOR 1254 (30%), Method: PREINCUBATION): inactive; negative
- mutagenic call (Test System: AMES SALMONELLA TYPHIMURIUM, Strain/Indicator: TA100, Metabolic Activation: RAT, LIVER, S-9, AROCLOR 1254, Method: STANDARD PLATE): inactive; negative
- mutagenic call (Test System: AMES SALMONELLA TYPHIMURIUM, Strain/Indicator: TA1535, Metabolic Activation: HAMSTER, LIVER, S-9, AROCLOR 1254 (10 OR 30%), Method: PREINCUBATION): inactive; negative
- mutagenic call (Test System: AMES SALMONELLA TYPHIMURIUM, Strain/Indicator: TA1535, Metabolic Activation: NONE, Method: PREINCUBATION): inactive; negative
- mutagenic call (Test System: AMES SALMONELLA TYPHIMURIUM, Strain/Indicator: TA1535, Metabolic Activation: NONE, Method: STANDARD PLATE): inactive; negative
- mutagenic call (Test System: AMES SALMONELLA TYPHIMURIUM, Strain/Indicator: TA1535, Metabolic Activation: RAT, LIVER, S-9, AROCLOR 1254 (10 OR 30%), Method: PREINCUBATION): inactive; negative
- mutagenic call (Test System: AMES SALMONELLA TYPHIMURIUM, Strain/Indicator: TA1535, Metabolic Activation: RAT, LIVER, S-9, AROCLOR 1254, Method: STANDARD PLATE): inactive; negative
- mutagenic call (Test System: AMES SALMONELLA TYPHIMURIUM, Strain/Indicator: TA1537, Metabolic Activation: NONE, Method: STANDARD PLATE): inactive; negative
- mutagenic call (Test System: AMES SALMONELLA TYPHIMURIUM, Strain/Indicator: TA1537, Metabolic Activation: RAT, LIVER, S-9, AROCLOR 1254, Method: STANDARD PLATE): inactive; negative
- mutagenic call (Test System: E. COLI, Strain/Indicator: WP2 UVRA, Metabolic Activation: HAMSTER, LIVER, S-9, AROCLOR 1254, Method: STANDARD PLATE): inactive; negative
- mutagenic call (Test System: E. COLI, Strain/Indicator: WP2 UVRA, Metabolic Activation: HAMSTER, LIVER, S-9, Method: STANDARD PLATE): inactive; negative
- mutagenic call (Test System: E. COLI, Strain/Indicator: WP2 UVRA, Metabolic Activation: MOUSE, LIVER, S-9, AROCLOR 1254, Method: STANDARD PLATE): inactive; negative
- mutagenic call (Test System: E. COLI, Strain/Indicator: WP2 UVRA, Metabolic Activation: MOUSE, LIVER, S-9, Method: STANDARD PLATE): inactive; negative
- mutagenic call (Test System: E. COLI, Strain/Indicator: WP2 UVRA, Metabolic Activation: NONE, Method: STANDARD PLATE): inactive; negative
- mutagenic call (Test System: E. COLI, Strain/Indicator: WP2 UVRA, Metabolic Activation: RAT, LIVER, S-9, AROCLOR 1254, Method: STANDARD PLATE): inactive; negative
- mutagenic call (Test System: E. COLI, Strain/Indicator: WP2 UVRA, Metabolic Activation: RAT, LIVER, S-9, Method: STANDARD PLATE): inactive; negative
- mutagenic call (Test System: UDS RAT HEPATOCYTES, Strain/Indicator: BROMODEOXYURIDINE INCORP, Metabolic Activation: NONE, Method: FLOW CYTOMETRIC ANALYSIS): inactive; negative

Compound: N[C@H](CS)C(=O)O
- mutagenic call (Test System: AMES SALMONELLA TYPHIMURIUM, Strain/Indicator: TA92, Metabolic Activation: NONE, Method: STANDARD PLATE): inactive; negative
- mutagenic call (Test System: AMES SALMONELLA TYPHIMURIUM, Strain/Indicator: TA92, Metabolic Activation: RAT, KIDNEY, S-9, Method: STANDARD PLATE): inactive; negative
- mutagenic call (Test System: AMES SALMONELLA TYPHIMURIUM, Strain/Indicator: TA92, Metabolic Activation: RAT, LIVER, S-9, Method: STANDARD PLATE): inactive; negative
- mutagenic call [3]: inactive; negative
- mutagenic call (Test System: AMES SALMONELLA TYPHIMURIUM, Strain/Indicator: TA100, Metabolic Activation: RAT, KIDNEY, S-9, Method: STANDARD PLATE): inactive; negative
- mutagenic call (Test System: AMES SALMONELLA TYPHIMURIUM, Strain/Indicator: TA100, Metabolic Activation: RAT, LIVER, S-9, Method: STANDARD PLATE): inactive; negative

Compound: c1cc(-c2ccncc2)ccn1
- mutagenic call (Test System: AMES SALMONELLA TYPHIMURIUM, Strain/Indicator: TA97, Metabolic Activation: RAT, LIVER, S-9, PHENOBARBITAL, Method: STANDARD PLATE): inactive; negative
- mutagenic call (Test System: AMES SALMONELLA TYPHIMURIUM, Strain/Indicator: TA97, Metabolic Activation: RAT, LIVER, S-9, SODIUM PHENOBARBITAL, Method: PREINCUBATION): active; positive
- mutagenic call (Test System: AMES SALMONELLA TYPHIMURIUM, Strain/Indicator: TA98, Metabolic Activation: RAT, LIVER, S-9, PHENOBARBITAL, Method: STANDARD PLATE): inactive; negative
- mutagenic call (Test System: AMES SALMONELLA TYPHIMURIUM, Strain/Indicator: TA100, Metabolic Activation: RAT, LIVER, S-9, PHENOBARBITAL, Method: STANDARD PLATE): inactive; negative
- mutagenic call (Test System: AMES SALMONELLA TYPHIMURIUM, Strain/Indicator: TA100, Metabolic Activation: RAT, LIVER, S-9, SODIUM PHENOBARBITAL, Method: PREINCUBATION): active; positive
- mutagenic call (Test System: AMES SALMONELLA TYPHIMURIUM, Strain/Indicator: TA1535, Metabolic Activation: RAT, LIVER, S-9, PHENOBARBITAL, Method: STANDARD PLATE): inactive; negative
- mutagenic call (Test System: AMES SALMONELLA TYPHIMURIUM, Strain/Indicator: TA1537, Metabolic Activation: RAT, LIVER, S-9, PHENOBARBITAL, Method: STANDARD PLATE): active; positive
- mutagenic call (Test System: AMES SALMONELLA TYPHIMURIUM, Strain/Indicator: TA1538, Metabolic Activation: RAT, LIVER, S-9, PHENOBARBITAL, Method: STANDARD PLATE): inactive; negative

Compound: Clc1cccnc1Cl
- mutagenic call (Test System: AMES SALMONELLA TYPHIMURIUM, Strain/Indicator: TA97, Metabolic Activation: NONE, Method: STANDARD PLATE): inactive; negative
- mutagenic call (Test System: AMES SALMONELLA TYPHIMURIUM, Strain/Indicator: TA97, Metabolic Activation: RAT, LIVER, S-9, AROCLOR 1254, Method: STANDARD PLATE): active; positive
- mutagenic call [1]: inactive; negative
- mutagenic call [2]: inactive; negative
- mutagenic call [3]: inactive; negative
- mutagenic call (Test System: AMES SALMONELLA TYPHIMURIUM, Strain/Indicator: TA102, Metabolic Activation: NONE, Method: STANDARD PLATE): inactive; negative
- mutagenic call (Test System: AMES SALMONELLA TYPHIMURIUM, Strain/Indicator: TA102, Metabolic Activation: RAT, LIVER, S-9, AROCLOR 1254, Method: STANDARD PLATE): inactive; negative
